Where “and” joins values, the source holds several entries; their conditions need not be identical. Identical values can stand only once.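 Assay format: 96-well plates, 48-hour exposure. GI50 marks 50% less growth. At the TGI there is no net growth.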
What was measured:
Assay in all cases: NCI-60 cell line screen, 48 h
HCT-116 colon = tested on: HCT-116 colon
SF-268 CNS = tested on: SF-268 CNS
NCI-H460 lung = tested on: NCI-H460 lung
NCI/ADR-RES ovarian = tested on: NCI/ADR-RES ovarian
OVCAR-4 ovarian = tested on: OVCAR-4 ovarian
OVCAR-8 ovarian = tested on: OVCAR-8 ovarian
A549 NSCLC = tested on: A549 NSCLC
T-47D breast = tested on: T-47D breast
HCC-2998 colon = tested on: HCC-2998 colon
SF-539 CNS = tested on: SF-539 CNS

SMILES | TGI (HCT-116 colon) | TGI (SF-268 CNS) | TGI (NCI-H460 lung) | TGI (NCI/ADR-RES ovarian) | TGI (OVCAR-4 ovarian) | TGI (OVCAR-8 ovarian) | TGI (A549 NSCLC) | TGI (T-47D breast) | TGI (HCC-2998 colon) | TGI (SF-539 CNS) | GI50 (SF-539 CNS) | GI50 (OVCAR-8 ovarian) | GI50 (HCC-2998 colon) | GI50 (HCT-116 colon) | GI50 (SF-268 CNS) | GI50 (NCI-H460 lung) | GI50 (NCI/ADR-RES ovarian) | GI50 (OVCAR-4 ovarian) | GI50 (A549 NSCLC) | GI50 (T-47D breast)
Cc1cnc2cc(Cl)ccc2c1SCC(=O)O | > 100 µM | > 100 µM | > 100 µM | > 100 µM | > 100 µM | > 100 µM | > 100 µM | > 100 µM |  |  |  |  |  |  |  |  |  |  |  | 
Cc1cccc(-c2cc(=O)c3cc(C)cnc3[nH]2)c1 | 11.4 µM | > 100 µM | 13.1 µM | 0.394 µM | > 100 µM |  | > 100 µM | > 100 µM | 6.82 µM | 2.62 µM |  |  |  |  |  |  |  |  |  | 
O=c1cc(-c2ccccc2)[nH]c2c(F)ccc(F)c12 | > 100 µM | > 100 µM | > 100 µM |  | > 100 µM | > 100 µM | > 100 µM |  |  | > 100 µM |  |  |  |  |  |  |  |  |  | 
COc1cccc2c1C(=O)c1c(O)c3c(c(O)c1C2=O)C[C@@](O)(C(=O)CO)CC3OC1CC(NCCCCC(OC(C)=O)OC(C)=O)C(O)C(C)O1 (some centres undefined) |  |  | 0.319 µM |  | 0.00449 µM and 0.00985 µM | 0.0614 µM |  |  | 0.00495 µM and 0.00577 µM | 0.00421 µM and 0.0374 µM | 0.00296 µM | 0.00179 µM |  |  |  |  |  |  |  | 
Clc1ccc(C2=NNC(c3cccc(Cl)c3)C2)cc1 (centres undefined) | > 100 µM | > 100 µM | > 100 µM | 89.9 µM | > 100 µM |  | > 100 µM | > 100 µM |  | > 100 µM |  |  |  |  |  |  |  |  |  | 
COc1ccc(Nc2ccnc3cc(Cl)ccc23)cc1CN(CCCl)CCCl | 3.84 µM | 4.89 µM | 2.96 µM | > 100 µM | 5.19 µM | > 100 µM | > 28.5 µM | > 100 µM | 4.54 µM |  |  | 2.2 µM | 1.68 µM | 1.14 µM | 1.15 µM | 0.532 µM | 3.84 µM | 1.74 µM | 1.69 µM | 2.27 µM
C/C(=N/OCCC(=O)O)C1CC1 | > 100 µM | > 100 µM | > 100 µM |  | > 100 µM | > 100 µM | > 100 µM |  | > 100 µM | > 100 µM |  |  |  |  |  |  |  |  |  | 
CCC(C)Cn1c(C)nc2c1C(=O)c1ccccc1C2=O (centres undefined) |  | > 100 µM | 34.3 µM |  | > 100 µM | > 100 µM | > 100 µM |  | > 100 µM | 59.5 µM |  |  |  |  |  |  |  |  |  | 
CCCCCC(=O)OCC1(CO)C/C(=C/CC(C(C)C)C(C)C)C(=O)O1 (centres undefined) | > 75 µM | > 75 µM | > 75 µM | > 75 µM | > 75 µM | > 75 µM | > 75 µM | > 75 µM | > 75 µM |  |  |  |  |  |  |  |  |  |  | 
CN(C)CCSc1nccc(-c2ccc(-c3ccnc(SCCN(C)C)n3)s2)n1 | 13.1 µM | 22 µM | 9.86 µM | 19.9 µM | 16.2 µM | 31.4 µM | 31.7 µM |  | 18.6 µM | 20.4 µM |  |  |  |  |  |  |  |  |  | 
CC(C)(C)C1=CC(O)(c2c3ccccc3c(C3(O)C=C(C(C)(C)C)C(=O)C(C(C)(C)C)=C3)c3ccccc23)C=C(C(C)(C)C)C1=O | > 100 µM | > 100 µM |  | > 100 µM | > 100 µM | > 100 µM | > 100 µM | > 100 µM |  | > 100 µM |  |  |  |  |  |  |  |  |  | 
Cc1cc(C)c(N)c(CO)c1 | > 100 µM | > 100 µM | > 100 µM | > 100 µM | > 100 µM | > 100 µM | > 100 µM |  | > 100 µM | > 100 µM |  |  |  |  |  |  |  |  |  | 
CCOC(=O)c1sc2[n+](c1C)C(=O)/C(=C/c1ccccc1Cl)S2 | > 48 µM | > 53.5 µM | 6.44 µM | 16.1 µM | > 100 µM | 35 µM | > 56.8 µM | 55.1 µM |  | 15.2 µM |  |  |  |  |  |  |  |  |  | 
COc1ccc(Cn2nc(OCc3ccccc3)c3cc([N+](=O)[O-])ccc32)cc1 |  | > 100 µM | > 100 µM | > 100 µM |  | > 100 µM | > 100 µM | > 100 µM | > 100 µM | > 100 µM |  |  |  |  |  |  |  |  |  | 
COc1ccc(-c2nc3ncccn3c2-c2ccc(S(C)(=O)=O)cc2)cc1 | > 100 µM | > 100 µM | > 100 µM | > 100 µM | > 100 µM | > 100 µM | > 100 µM |  |  | > 100 µM |  |  |  |  |  |  |  |  |  | 
CC1=NNC(N)=N/C1=C\C(Sc1ccc(Cl)cc1)c1ccc(Cl)cc1Cl (centres undefined) | > 65 µM | 33.2 µM | 29.3 µM | 39 µM | 44.6 µM | 31.7 µM | 59.4 µM | 38.8 µM | 17 µM |  |  |  |  |  |  |  |  |  |  | 
CCOC(=O)N1c2c(c3ccccc3n2C(=O)OCC)C(=O)C(OC)N1C(=O)OCC (centres undefined) | 86.9 µM |  | > 100 µM | 62.1 µM | > 100 µM | > 100 µM | > 100 µM |  | > 100 µM | 74.7 µM |  |  |  |  |  |  |  |  |  | 
COc1nc2ncc([C@@H](O)[C@H](O)CO)nc2c(=O)[nH]1 | > 100 µM | > 100 µM | > 100 µM | > 100 µM | > 100 µM | > 100 µM | > 100 µM | > 100 µM |  | > 100 µM |  |  |  |  |  |  |  |  |  | 
O=C(OCC(OC(=O)c1ccccc1)C1CC(C(O)C2CCCCC2)C(=O)O1)c1ccccc1 (centres undefined) | > 100 µM | > 100 µM | > 100 µM | > 100 µM | > 100 µM | > 100 µM |  | > 100 µM | > 100 µM | 66.1 µM |  |  |  |  |  |  |  |  |  | 
O=C(CSCC(=O)N/N=C\c1cccc(Br)c1)N/N=C\c1cccc(Br)c1 | 27.9 µM | 37.9 µM | 84.3 µM | 34.1 µM | 69.9 µM | 35.4 µM | 31.5 µM | 54.6 µM |  | 50.8 µM |  |  |  |  |  |  |  |  |  | 
N#CC(NNC(=O)c1c(Cl)c(Cl)c(Cl)c(Cl)c1-c1nc2ccc(C(=O)c3ccccc3)cc2[nH]1)c1cccc(Oc2ccccc2)c1 (centres undefined) | > 100 µM |  |  | 57.1 µM | > 100 µM | > 100 µM | > 100 µM | 76.2 µM |  | 43.4 µM |  |  |  |  |  |  |  |  |  | 
O=C(/C=C/c1ccc(OCCCOc2ccc(/C=C/C(=O)c3ccc(Cl)cc3)cc2)cc1)c1ccc(Cl)cc1 | > 100 µM | > 100 µM | > 100 µM |  | > 100 µM | > 100 µM | > 100 µM |  | > 100 µM | > 100 µM |  |  |  |  |  |  |  |  |  | 
c1ccc(C2C3=C(CCCC3)Nc3nnnn32)cc1 (centres undefined) | > 100 µM | 90.8 µM | > 100 µM | > 100 µM |  | > 100 µM | > 100 µM | > 100 µM |  | > 100 µM |  |  |  |  |  |  |  |  |  | 

From PubChem BioAssay (NCI)
